According to PubChem BioAssay (NCI):
“And” between values parts separate entries of the source, which are not always exact repeats. Identical values can stand only once.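 In this assay, cells in 96-well plates receive the compound at five concentrations for 48 hours. Endpoints are linearly interpolated between the surrounding concentrations. GI50 = concentration required for 50% inhibition of growth. Definition used: TGI = concentration required for complete inhibition of growth.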

Columns and labels:
Assay in all cases: NCI-60 cell line screen, 48 h
NCI/ADR-RES ovarian = system: NCI/ADR-RES ovarian
SW-620 colon = system: SW-620 colon
PC-3 prostate = system: PC-3 prostate
UACC-62 melanoma = system: UACC-62 melanoma
MDA-MB-435 = system: MDA-MB-435
U251 CNS = system: U251 CNS
OVCAR-3 ovarian = system: OVCAR-3 ovarian
KM12 colon = system: KM12 colon
SR leukemia = system: SR leukemia
A498 renal = system: A498 renal

| Compound | GI50 (NCI/ADR-RES ovarian) [µM] | TGI (NCI/ADR-RES ovarian) [µM] | GI50 (SW-620 colon) [µM] | TGI (SW-620 colon) | GI50 (PC-3 prostate) [µM] | TGI (PC-3 prostate) [µM] | GI50 (UACC-62 melanoma) [µM] | TGI (UACC-62 melanoma) | GI50 (MDA-MB-435) [µM] | TGI (MDA-MB-435) [µM] | GI50 (U251 CNS) [µM] | TGI (U251 CNS) | GI50 (OVCAR-3 ovarian) [µM] | TGI (OVCAR-3 ovarian) | GI50 (KM12 colon) [µM] | TGI (KM12 colon) | GI50 (SR leukemia) [µM] | TGI (SR leukemia) [µM] | GI50 (A498 renal) [µM] | TGI (A498 renal) [µM] |
| --- | --- | --- | --- | --- | --- | --- | --- | --- | --- | --- | --- | --- | --- | --- | --- | --- | --- | --- | --- | --- |
| O=C1/C(=C/c2ccccc2)SC(=Nc2ccccc2)N1Nc1ccccc1 | 18.1 | > 100 | 17.6 | > 100 µM | 4.49 | > 100 | 10.3 | 39.4 µM | 15.1 | 48 | 12.9 | > 100 µM | 10.2 | 91.2 µM | 19 | > 100 µM | 21.3 | > 100 | – | – |
| NC1=NC(c2ccccc2)N=C(Nc2ccccc2)N1 (stereo not drawn) | > 100 | > 100 | > 100 | > 100 µM | > 100 | > 100 | > 100 | > 100 µM | 34.5 | > 100 | 42.1 | > 100 µM | 32 | > 100 µM | 31.6 | > 100 µM | – | – | 11.4 | > 100 |
| C=C(CN(CC(=C)C(=O)c1ccccc1)C(C)(C)C)C(=O)c1ccccc1 | – | – | – | 9.91 µM | – | – | – | 32.4 µM | – | – | – | 39.4 µM | – | 37.5 µM | – | 17.6 µM | – | > 21 | – | 32.9 |
| CC1C=C(OC(=O)c2ccccc2)C(=O)C(n2cc(F)c(=O)n(C(=O)c3ccccc3)c2=O)O1 (stereo not drawn) | – | – | – | 96.6 µM | – | – | – | 98.6 µM | – | – | – | > 100 µM | – | 56.4 µM | – | – | – | – | – | – |
| Cn1cc2c(n1)c(N/N=C/c1ccccc1)nn1nnnc21 | – | – | – | > 100 µM | – | – | – | > 100 µM | – | – | – | > 100 µM | – | > 100 µM | – | – | – | > 100 | – | > 100 |
| CCC(=O)OC1CCn2c1nc1c2C(=O)C(C)=C(N2CC2)C1=O (stereo not drawn) | – | 0.4 | 0.0248 | 0.244 µM and 0.13 µM | – | 0.306 | 0.0231 | 0.0577 µM and 0.127 µM | – | 0.0922 | 0.0733 | 0.484 µM and 0.576 µM | 0.0296 | 0.0975 µM and 0.137 µM | 0.0242 | 0.159 µM and 0.363 µM | – | – | – | 0.106 |
| C=C1C(=O)O[C@H]2[C@H]1CC/C(COC(=O)C(=O)c1c[nH]c3ccc(OC)cc13)=C\CC[C@@]1(C)O[C@@H]21 | 9.53 | 29.6 | 4 | 16.2 µM | 6.08 | 11.1 | 3.21 | 7.49 µM | 5.52 | 10.8 | 7.06 | 10.8 µM | 1.87 | 3.42 µM | 7.82 | 14.2 µM | 3.29 | 29 | – | – |
| O=C1c2ccccc2S(=O)(=O)N1CSC(=S)N1CCCC1 | > 100 | > 100 | > 100 | > 100 µM | 7.62 | > 100 | > 75.7 | > 100 µM | 99.7 | > 100 | > 100 | > 100 µM | > 25.6 | > 100 µM | > 100 | > 100 µM | – | – | > 100 | > 100 |
